According to patent US9301923B2, “Lipids, lipid compositions, and methods of using them” (NOVARTIS AG, priority 2009, dated 2016):
Read-outs that look alike come from different tables or passages of the source.

Key:
[1] = pKa of the lipid by TNS fluorescence; assay type: physicochemical
Experimental: Unless explicitly indicated otherwise, all pKas referred to herein are measured in water at standard temperature and pressure. Also, unless otherwise indicated, all references to pKa are references to pKa measured using the following technique.
2 mM solution of lipid in ethanol are prepared by weighing the lipid and then dissolving in ethanol.
This is done with all eight buffers.
Priority: Column priority • Carriage Speed: Normal • Auto read: Off
The normalized fluorescence intensity vs. pH chart is then plotted in the Microsoft Excel software. The eight points are connected with a smooth line.
The pKa determined using this method is precise to about 0.2 pKa units.

Factor VII = Factor VII activity assay, in vivo liver delivery of FVII siRNA LNP; set-up: species or system mouse; conditions: ~48 h
Experimental: Female CD-1 mice are received from Charles River Labs and maintained on standard lab chow and water ad libitum. The animals weigh approximately 25 grams at time of dosing. Formulated siRNA is administered as a single dose at various dose levels intravenously via the lateral tail vein calculated on a (mg siRNAs/kg) basis according to individual animal weights (10 ml/kg injection volume).
Formulated siRNAs are made up of double stranded siRNA sequences specific to a target mRNA sequence, and are in the form of lipid nucleotid particles (LNPs) containing cationic lipids, stealth lipids and neutral lipids, as provided in the Examples below. The siRNA construct for use in targeting the liver is specific to Factor VII. […] FVII siRNA duplex sequence
Formulated Factor VII siRNA is administered as a single dose at various dose levels intravenously via the lateral tail vein calculated on a mg siRNAs/kg basis according to individual animal weights (10 ml/kg injection volume). Approximately 48 h after injection, the mice are euthanized by CO2 inhalation followed by exsanguinations through the vena cava. […] In some cases, small pieces (˜50 mg) of liver are collected and snap frozen in liquid nitrogen for follow up mRNA quantitation.
An assay standard curve is prepared using pooled plasma aliquots from the vehicle control animals.

[2] = Particle size and PDI by dynamic light scattering (Malvern Zetasizer); assay type: physicochemical
Experimental: Unless indicated otherwise, all sizes referred to herein are the average sizes (diameters) of the fully formed nanoparticle, as measured by dynamic light scattering on a Malvern Zetasizer. The nanoparticle sample is diluted in phosphate buffered saline (PBS) so that the count rate is approximately 200-400 kcts. The data is presented as a weighted average of the intensity measure.
The acronym PDI stands for polydispersity index. Unless indicated otherwise, all PDIs referred to herein are the PDI of the fully formed nanoparticle, as measured by dynamic light scattering on a Malvern Zetasizer. The nanoparticle sample is diluted in phosphate buffered saline (PBS) so that the count rate is approximately 200-400 kcts.

[3] = dose 3 mg/kg siRNA i.v., lipid/DSPC/CHOL/AVANTI 880150P 50/28/18/4, N/P 3.43
[4] = dose 3 mg/kg siRNA i.v., lipid/no neutral lipid/CHOL/AVANTI 880150P 50/0/46/4, N/P 3.43
[5] = lipid/DSPC/CHOL/AVANTI 880150P 50/28/18/4, N/P 3.43
[6] = lipid/no neutral lipid/CHOL/AVANTI 880150P 50/0/46/4, N/P 3.43
[7] = dose 1 mg/kg siRNA i.v., lipid/DSPC/CHOL/AVANTI 880150P 50/28/18/4, N/P 3.43
[8] = dose 1 mg/kg siRNA i.v., lipid/no neutral lipid/CHOL/GM-020 NOF 60/0/36/4, N/P 3
[9] = lipid/no neutral lipid/CHOL/GM-020 NOF 60/0/36/4, N/P 3

| Compound | pKa ([1]; pKa) | FVII inhib % (Factor VII; [3]) [%] | FVII inhib % (Factor VII; [4]) [%] | Final size (nm) [2, 5] [nm] | PDI [2, 5] | Final size (nm) [2, 6] [nm] | PDI [2, 6] | pKa ([1]; aqueous buffer series with fluorescent probe TNS, probe TNS, pKa of the cationic lipid, read-out: pKa) | FVII inhib % (Factor VII; [7]) [%] | FVII inhib % (Factor VII; dose 1 mg/kg siRNA i.v., lipid/no neutral lipid/CHOL/AVANTI 880150P 50/0/46/4, N/P 3.43) [%] | FVII inhib % (Factor VII; [8]) [%] | Final size (nm) [2, 9] [nm] | PDI [2, 9] |
| --- | --- | --- | --- | --- | --- | --- | --- | --- | --- | --- | --- | --- | --- |
| CCCCC/C=C\C/C=C\CCCCCCCCOCC(CN1CC2CCCN(C(=O)OC(C)(C)C)C2C1)OCCOCCO[C@H]1CC[C@@]2(C)C(=CCC3C2CC[C@@]2(C)C3CC[C@@H]2[C@H](C)CCCC(C)C)C1 (stereo partly drawn) [E0041] | 4.8 | −7.4 | 17.6 | 95 | 0.37 | 93 | 0.21 |  |  |  |  |  |  |
| CCCCC/C=C\C/C=C\CCCCCCCCOCC(CN1CCC(O[Si](C)(C)C(C)(C)C)C1)OCCOCCO[C@H]1CC[C@@]2(C)C(=CC[C@H]3[C@@H]4CC[C@H]([C@H](C)CCCC(C)C)[C@@]4(C)CC[C@@H]32)C1 (stereo partly drawn) [E0042] |  | 49.1 | 84.5 | 83 | 0.11 | 73 | 0.19 | 6.7 |  |  |  |  |  |
| CCCCC/C=C\C/C=C\CCCCCCCCOC[C@H](CN1CCCCC1)OCCOCCO[C@H]1CC[C@@]2(C)C(=CCC3C2CC[C@@]2(C)C3CC[C@@H]2[C@H](C)CCCC(C)C)C1 (stereo partly drawn) [E0043] | 6.33 | 95.7 | −11.7 | 110 | 0.24 | 76 | 0.15 |  |  |  |  |  |  |
| CCCCC/C=C\C/C=C\CCCCCCCCOCC(CN1C(C)CCC1C)OCCOCCO[C@H]1CC[C@@]2(C)C(=CCC3C2CC[C@@]2(C)C3CC[C@@H]2[C@H](C)CCCC(C)C)C1 (stereo partly drawn) [E0046] | 5.75 |  | 12.7 |  |  | 194 | 0.116 |  |  |  |  |  |  |
| CCCCC/C=C\C/C=C\CCCCCCCCOCC(CN1CCCCC1)OC(=O)COCC(=O)O[C@H]1CC[C@@]2(C)C(=CCC3C2CC[C@@]2(C)C3CC[C@@H]2[C@H](C)CCCC(C)C)C1 (stereo partly drawn) [E0047] | 5.55 |  | −3.4 |  |  | 112 | 0.061 |  |  |  |  |  |  |
| CCCCC/C=C\C/C=C\CCCCCCCCOCC(CN1CCC[C@@H]1C)OCCOCCO[C@H]1CC[C@@]2(C)C(=CCC3C2CC[C@@]2(C)C3CC[C@@H]2[C@H](C)CCCC(C)C)C1 (stereo partly drawn) [E0048] | 6.56 |  | 88.5 |  |  | 225 | 0.115 |  |  |  |  |  |  |
| CCCCC/C=C\C/C=C\CCCCCCCCOCC(CN1CCC[C@H]1C)OCCOCCO[C@H]1CC[C@@]2(C)C(=CCC3C2CC[C@@]2(C)C3CC[C@@H]2[C@H](C)CCCC(C)C)C1 (stereo partly drawn) [E0049] | 6.85 |  | 78.8 |  |  | 237 | 0.09 |  |  |  |  |  |  |
| CCCCC/C=C\C/C=C\CCCCCCCCOCC(CN1CCCC1c1ccccc1)OCCOCCO[C@H]1CC[C@@]2(C)C(=CC[C@H]3[C@@H]4CC[C@H]([C@H](C)CCCC(C)C)[C@@]4(C)CC[C@@H]32)C1 (stereo partly drawn) [E0050] | 4.9 | −7.2 | −10.4 | 100 | 0.21 | 103 | 0.097 |  |  |  |  |  |  |
| CCCCC/C=C\C/C=C\CCCCCCCCOC[C@@H](CN1CCC[C@H]1C)OCCOCCO[C@H]1CC[C@@]2(C)C(=CCC3C2CC[C@@]2(C)C3CC[C@@H]2[C@H](C)CCCC(C)C)C1 (stereo partly drawn) [E0052] | 6.95 | 98.1 |  | 100.4 | 0.185 |  |  |  | 69.8 |  |  |  |  |
| CCCCC/C=C\C/C=C\CCCCCCCCOCC(CN1CCCCC1)OCCOCCNC(=O)O[C@H]1CC[C@@]2(C)C(=CCC3C2CC[C@@]2(C)C3CC[C@@H]2[C@H](C)CCCC(C)C)C1 (stereo partly drawn) [E0054] | 6.58 | 97.8 | 98.9 | 103 | 0.2 | 96 | 0.13 |  | 57.5 | 63 |  |  |  |
| CCCCC/C=C\C/C=C\CCCCCCCCOCC(CN1CCCCC1)OCCOCCOC(=O)CCC(=O)O[C@H]1CC[C@@]2(C)C(=CCC3C2CC[C@@]2(C)C3CC[C@@H]2[C@H](C)CCCC(C)C)C1 (stereo partly drawn) [E0060] | 6.43 |  |  |  |  |  |  |  |  |  | 0.0 | 90.25 | 0.171 |
| CCCCCCCC/C=C\CCCCCCCCOCC(CN1CCC(OC)C1)OCCO[C@H]1CC[C@@]2(C)C(=CC[C@H]3[C@@H]4CC[C@H]([C@H](C)CCCC(C)C)[C@@]4(C)CC[C@@H]32)C1 (stereo partly drawn) [E0062] | 6.45 |  |  |  |  |  |  |  |  |  | 64.8 | 145.1 | 0.125 |
| CCCCCCCC/C=C\CCCCCCCCOCC(CN1CCCCC1)OCCOCCO[C@H]1CC[C@@]2(C)C(=CC[C@H]3[C@@H]4CC[C@H]([C@H](C)CCCC(C)C)[C@@]4(C)CC[C@@H]32)C1 (stereo partly drawn) [E0063] | 6.48 |  |  |  |  |  |  |  |  |  | 33.3 | 155.5 | 0.09 |
| CCCCCCCC/C=C\CCCCCCCCOCC(CN1CCC(OC)C1)OCCOCCO[C@H]1CC[C@@]2(C)C(=CC[C@H]3[C@@H]4CC[C@H]([C@H](C)CCCC(C)C)[C@@]4(C)CC[C@@H]32)C1 (stereo partly drawn) [E0064] | 6.83 |  |  |  |  |  |  |  |  |  | 37.2 | 169.2 | 0.144 |
| CCCCCCCC/C=C\CCCCCCCCOCC(CN1CCCC1C)OCCOCCO[C@H]1CC[C@@]2(C)C(=CC[C@H]3[C@@H]4CC[C@H]([C@H](C)CCCC(C)C)[C@@]4(C)CC[C@@H]32)C1 (stereo partly drawn) [E0065] | 6.8 |  |  |  |  |  |  |  |  |  | 41.1 | 153.01 | 0.148 |
| CCCCCCCC/C=C\CCCCCCCCOCC(CN1CCCC1C)OCCO[C@H]1CC[C@@]2(C)C(=CC[C@H]3[C@@H]4CC[C@H]([C@H](C)CCCC(C)C)[C@@]4(C)CC[C@@H]32)C1 (stereo partly drawn) [E0066] | 6.5 |  |  |  |  |  |  |  |  |  | 44.2 | 140.7 | 0.071 |
| CCCCC/C=C\C/C=C\CCCCCCCCCCOCC(CN1CCOCC1)OCCO[C@H]1CC[C@@]2(C)C(=CC[C@H]3[C@@H]4CC[C@H]([C@H](C)CCCC(C)C)[C@@]4(C)CC[C@@H]32)C1 (stereo partly drawn) [E0068] | 4.82 |  |  |  |  |  |  |  |  |  | 28.6 | 174.0 | 0.041 |
| CCCCC/C=C\C/C=C\CCCCCCCCCCOCC(CN1CCCCC1)OCCO[C@H]1CC[C@@]2(C)C(=CC[C@H]3[C@@H]4CC[C@H]([C@H](C)CCCC(C)C)[C@@]4(C)CC[C@@H]32)C1 (stereo partly drawn) [E0069] | 6.07 |  |  |  |  |  |  |  |  |  | 29 | 113.4 | 0.199 |
| CCCCC/C=C\C/C=C\CCCCCCCCCCOCC(CN1CCCC1C)OCCO[C@H]1CC[C@@]2(C)C(=CC[C@H]3[C@@H]4CC[C@H]([C@H](C)CCCC(C)C)[C@@]4(C)CC[C@@H]32)C1 (stereo partly drawn) [E0070] | 6.4 |  |  |  |  |  |  |  |  |  | 50.3 | 150.9 | 0.045 |
| CCCCC/C=C\C/C=C\CCCCCCCCCCOCC(CN1CCCCC1)OCCOCCO[C@H]1CC[C@@]2(C)C(=CC[C@H]3[C@@H]4CC[C@H]([C@H](C)CCCC(C)C)[C@@]4(C)CC[C@@H]32)C1 (stereo partly drawn) [E0071] | 6.47 |  |  |  |  |  |  |  |  |  | 30.8 | 188.2 | 0.151 |
| CCCCCCCC/C=C\CCCCCCCCOCC(CN1CCCCC1)OCCCOCCCO[C@H]1CC[C@@]2(C)C(=CC[C@H]3[C@@H]4CC[C@H]([C@H](C)CCCC(C)C)[C@@]4(C)CC[C@@H]32)C1 (stereo partly drawn) [E0078] | 5.72 |  |  |  |  |  |  |  |  |  | 51.9 | 122.6 | 0.098 |
